The source of these data is publication PMC8327158, “PEGylated AdipoRon derivatives improve glucose and lipid metabolism under insulinopenic and high-fat diet conditions” (Journal of Lipid Research, 2021).

A short description of data set [1]: Plasma pharmacokinetics after IP dosing. The settings on record: IP 20 mg/kg; for Cmax: male, mouse, plasma, 8-week-old C57BL/6J mice, mean ± SEM. Type of data set: in vivo, C57BL/6J mice. As for the experimental part:
Two groups of male C57BL/6J mice (21 mice/group) at 8 weeks of age were dosed IP with 20 mg/kg AdipoRon or AdipoRonPEG5, 0.2 ml/mouse formulated as 10% DMSO/10% Cremophor/20% PEG400/60% PBS. Whole blood was harvested at seven time points post IP dosing, 10 min, 30 min, 90 min, 180 min, 360 min, 960 min, and 1,440 min. Three mice were euthanized at each time point. Plasma was processed from whole blood by centrifugation of the ACD-treated blood for 10′ at 10,000 rpm in a standard centrifuge. Additionally, the liver was harvested. The tissues were weighed and snap frozen in liquid nitrogen.
To quantify plasma drug concentration and PK, we prepared standards by adding 98 μl blank plasma (BioIVT) to an eppendorf. These were spiked with 2 μl of initial standard. For QCs, we added 98.8 μl blank plasma to Eppendorf, spiked with 1.2 μl of initial standard. For samples, we mixed 100 μl plasma with 200 μl of methanol containing 0.15% formic acid and 75 ng/ml IS (IS final conc. = 50 ng/ml). The samples were vortexed 15 s, incubated at room temp for 10′, and spun 2× 13,200 rpm in a standard microcentrifuge. The supernatant was then analyzed by LC-MS/MS.

For data set [2], the system named is liver transcriptome of HFD-fed mice. The data set is described as follows: RNA-seq of liver of HFD-fed mice. Type of data set: in vivo, mouse. The protocol: RNA-sequence was performed by Novogene (Sacramento, CA) by utilizing isolated RNA. After the QC procedures, mRNA from eukaryotic organisms is enriched from total RNA using oligo(dT) beads. For prokaryotic samples, rRNA is removed using a specialized kit that leaves the mRNA. The mRNA from either eukaryotic or prokaryotic sources was then fragmented randomly in fragmentation buffer, followed by cDNA synthesis using random hexamers and reverse transcriptase. After first-strand synthesis, a custom second-strand synthesis buffer (Illumina) is added, with dNTPs, RNase H, and Escherichia coli polymerase I to generate the second strand by nick-translation, and AMPure XP beads are used to purify the cDNA. The final cDNA library is ready after a round of purification, terminal repair, A-tailing, ligation of sequencing adapters, size selection, and PCR enrichment. Library concentration was first quantified using a Qubit 2.0 fluorometer (Life Technologies) and then diluted to […] before checking insert size on an Agilent 2100 and quantifying to greater accuracy by quantitative PCR (Q-PCR) (library activity >2 nM). Libraries are fed into Novaseq6000 machines according to activity and expected data volume.
Differential expression of genes between AdipoRon-treated group and AdipoRonPEG5-treated group was analyzed by use of genes having an fpkm of ≥0 in all samples. Genes whose expression was “between 1.1 and 0.9 fold change” or “more than 1.1 fold up- “or “less than 0.9 fold down-“ regulated in liver RNA from control (n = 3) versus AdipoRon (n = 3) versus AdipoRonPEG5 group constituted “nc”, “up,” and “down” signatures. Gene expression was analyzed using Gene Ontology analysis (GO Consortium) and GenePattern software (Broad Institute).

Details of data set [3]: method as in PMID 24172895. To be noted: oral administration at 50 mg kg−1 body weight; cited from earlier work.

Molecules are shown by their SMILES.

As to `O=C(COc1ccc(C(=O)c2ccccc2)cc1)NC1CCN(Cc2ccc(OCCOCCOCCOCCOCCO)cc2)CC1` [AdipoRonPEG5], in data set [1], the “increase in maximal plasma concentration compared with AdipoRon” value is given as “threefold” and the highest level (Cmax) was 6510 ± 685 ng/mL. Further, in data set [2] (HFD 4 weeks, 5 mg/kg 5 days), the “AdipoR1 / AdipoR2 signaling pathway genes” value is recorded as “preference toward amplifying AdipoR1 signaling pathway”; the “gluconeogenesis-related genes in the liver” value was “inhibitory effect”; the “triglyceride- and glucose-metabolism-related genes incl. scd1, pck1” value was “downregulated”; the “upregulation of genes of the family of ceramidases” value was “highest”. The “glutathione S-transferases Gstm1 and Gstm2” value in data set [2] (top 30 genes) is listed as “prominent increases”.

Turning to `O=C(COc1ccc(C(=O)c2ccccc2)cc1)NC1CCN(Cc2ccccc2)CC1` [AdipoRon], the highest level in data set [1] (Cmax) was 2170 ± 196 ng/mL. Moreover, in data set [2] (HFD 4 weeks, 5 mg/kg 5 days), the “AdipoR1 / AdipoR2 signaling pathway genes” value was “sided with AdipoR2 signaling” and the “upregulation of genes of the family of ceramidases” value was “to a lesser extent”. Also, in data set [2] (top 30 genes), the “lipogenesis genes Acly and Scd1” value is “highly upregulated”. Further, in data set [3], the maximal plasma concentration was 11.8 µM.
